Values quoted from earlier work, collected in patent US20090318627A1, “SOLID PHASE SYNTHESIS OF ACRIDINIUM DERIVATIVES” (Siemens Healthcare Diagnostics Inc., priority 2006, published 2009).

Settings: hydrolysis of ester linkage between acridinium ring and phenol

Compound	hydrolytic stability of the acridinium ester linkage, in words
9-carboxyphenyl-N-methylacridinium bromide	quite unstable
Cc1cc(C(=O)ON2C(=O)CCC2=O)cc(C)c1OC(=O)c1c2ccccc2[n+](C)c2ccccc12 [DMAE-NHS, 2′,6′-dimethyl-4′-(N-succinimidyloxycarbonyl)phenyl-10-methylacridinium-9-carboxylate]	significantly more resistant to hydrolysis
